Assay results published in patent US6737383B1, “Herbicidal oxadiazolidines” (priority 1999, dated 2004).

Key:
[1] = tested on: bedstraw; test: Test B pre/postemergence bedstraw; format: in vivo, Galium aparine; settings: Preemergence; for Bedstraw plant response rating: scale 0 to 10, 0 is no effect, 10 is complete control
In short: (§1)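 Herbicidal effect was estimated by eye on a ten-point control scale after plants spent twelve to sixteen days in a greenhouse following soil or foliar treatment. Foliar sprays targeted plants at one to four leaves; all doses were formulated in a non-phytotoxic solvent with surfactant.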

[2] = tested on: blackgrass; test: Test B pre/postemergence blackgrass; format: in vivo, Alopecurus myosuroides
In short: as §1

[3] = tested on: surinam grass; test: Test B pre/postemergence surinam grass; format: in vivo, Brachiaria decumbens
In short: as §1

[4] = tested on: cocklebur; test: Test B pre/postemergence cocklebur; format: in vivo, Xanthium strumarium
In short: as §1

[5] = tested on: corn; test: Test B pre/postemergence corn; format: in vivo, Zea mays
In short: as §1

[6] = tested on: crabgrass; test: Test B pre/postemergence crabgrass; format: in vivo, Digitaria sanguinalis
In short: as §1

[7] = tested on: giant foxtail; test: Test B pre/postemergence giant foxtail; format: in vivo, Setaria faberii
In short: as §1

[8] = tested on: morningglory; test: Test B pre/postemergence morningglory; format: in vivo, Ipomoea hederacea
In short: as §1

[9] = tested on: pigweed; test: Test B pre/postemergence pigweed; format: in vivo, Amaranthus retroflexus
In short: as §1

[10] = tested on: rape; test: Test B pre/postemergence rape; format: in vivo, Brassica napus
In short: as §1

[11] = tested on: soybean; test: Test B pre/postemergence soybean; format: in vivo, Glycine max
In short: as §1

[12] = tested on: sugar beet; test: Test B pre/postemergence sugar beet; format: in vivo, Beta vulgaris
In short: as §1

[13] = tested on: velvetleaf; test: Test B pre/postemergence velvetleaf; format: in vivo, Abutilon theophrasti
In short: as §1

[14] = tested on: wheat; test: Test B pre/postemergence wheat; format: in vivo, Triticum aestivum
In short: as §1

[15] = tested on: wild oat; test: Test B pre/postemergence wild oat; format: in vivo, Avena fatua
In short: as §1

[16] = tested on: purple nutsedge; test: Test B pre/postemergence purple nutsedge; format: in vivo, Cyperus rotundus
In short: as §1

[17] = tested on: rice; test: Test B flood test rice; format: in vivo, Oryza sativa
In short: (§2)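 Plants were grown to the 2-leaf stage before treatment with test chemical, then held in a greenhouse for twelve to sixteen days. Injury was visually rated against untreated controls on a 0–10 scale, where 0 is no effect and 10 is complete control.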

[18] = tested on: smallflower flatsedge; test: Test B flood test smallflower flatsedge; format: in vivo, Cyperus difformis
In short: as §2

[19] = tested on: duck salad; test: Test B flood test duck salad; format: in vivo, Heteranthera limosa
In short: as §2

[20] = tested on: bamyardgrass; test: Test B flood test barnyardgrass; format: in vivo, Echinochloa crus-galli
In short: as §2

[21] = Postemergence, Rate 125 g/ha, scale 0 to 10, 0 is no effect, 10 is complete control
[22] = Postemergence, Rate 250 g/ha, scale 0 to 10
[23] = Postemergence, Rate 500 g/ha, scale 0 to 10, 0 is no effect, 10 is complete control
[24] = Preemergence, Rate 62 g/ha, scale of 0 to 10 where 0 is no effect and 10 is complete control
[25] = Preemergence, Rate 125 g/ha, scale 0 to 10, 0 is no effect, 10 is complete control
[26] = Preemergence, Rate 250 g/ha, scale 0 to 10, 0 is no effect, 10 is complete control
[27] = Preemergence, Rate 500 g/ha, scale 0 to 10, 0 is no effect, 10 is complete control
[28] = Rate 62 g/ha, Postemergence, scale 0 to 10 (0 no effect, 10 complete control)
[29] = Rate 62 g/ha, flood test species, Pre-emergence, visual evaluation after twelve to sixteen days
[30] = Rate 125 g/ha, under heading Pre-emergence, flood test species, visual evaluation after twelve to sixteen days
[31] = Rate 250 g/ha, Pre-emergence (flood test species), scale 0 to 10, 0 is no effect, 10 is complete control
[32] = Rate 500 g/ha, Pre-emergence section of Table B, 0 to 10 scale (0 no effect, 10 complete control)

CC(C)N(C(=O)n1oc(=O)n(CCNC(=O)CCl)c1=O)c1ccccc1 [Compound 492]
Plant response rating, Bedstraw ([1]; Rate 62 g/ha, scale of 0 to 10 where 0 is no effect and 10 is complete control): 0 | Bedstraw plant response rating ([1]; Rate 125 g/ha): 0 | Bedstraw plant response rating ([1]; Rate 250 g/ha): 0 | Bedstraw plant response rating ([1]; Rate 500 g/ha): 0 | Blackgrass plant response rating [2, 21]: 0 | Blackgrass plant response rating [2, 22]: 0 | Plant response rating, Blackgrass [2, 23]: 0 | Plant response rating, Blackgrass [2, 24]: 0 | Blackgrass plant response rating [2, 25]: 0 | Blackgrass plant response rating [2, 26]: 0 | Blackgrass plant response rating [2, 27]: 0 | Blackgrass plant response rating [2, 28]: 0 | B. signalgrass plant response rating [3, 21]: 0 | B. signalgrass plant response rating ([3]; Postemergence, Rate 250 g/ha, scale 0 to 10, 0 no effect, 10 complete control): 0 | Plant response rating, B. signalgrass [3, 23]: 0 | Plant response rating, B. signalgrass [3, 24]: 0 | B. signalgrass plant response rating [3, 25]: 0 | B. signalgrass plant response rating [3, 26]: 0 | B. signalgrass plant response rating [3, 27]: 0 | B. signalgrass plant response rating [3, 28]: 0 | Cocklebur plant response rating [4, 21]: 0 | Cocklebur plant response rating [4, 22]: 0 | Plant response rating, Cocklebur [4, 23]: 0 | Plant response rating, Cocklebur [4, 24]: 0 | Cocklebur plant response rating [4, 25]: 0 | Cocklebur plant response rating [4, 26]: 0 | Cocklebur plant response rating [4, 27]: 0 | Cocklebur plant response rating [4, 28]: 0 | Corn plant response rating [5, 21]: 0 | Corn plant response rating [5, 22]: 0 | Plant response rating, Corn [5, 23]: 0 | Plant response rating, Corn [5, 24]: 0 | Corn plant response rating [5, 25]: 0 | Corn plant response rating [5, 27]: 0 | Corn plant response rating [5, 28]: 0 | Crabgrass plant response rating [6, 22]: 0 | Plant response rating, Crabgrass [6, 23]: 0 | Plant response rating, Crabgrass [6, 24]: 0 | Crabgrass plant response rating [6, 25]: 0 | Crabgrass plant response rating [6, 27]: 3 | Crabgrass plant response rating [6, 28]: 0 | Giant foxtail plant response rating [7, 21]: 0 | Plant response rating, Giant foxtail [7, 23]: 0 | Plant response rating, Giant foxtail [7, 24]: 2 | Giant foxtail plant response rating [7, 25]: 0 | Giant foxtail plant response rating [7, 27]: 9 | Giant foxtail plant response rating [7, 28]: 0 | Morningglory plant response rating [8, 21]: 5 | Plant response rating, Morningglory [8, 23]: 8 | Plant response rating, Morningglory [8, 24]: 0 | Morningglory plant response rating [8, 25]: 0 | Morningglory plant response rating [8, 27]: 0 | Morningglory plant response rating [8, 28]: 0 | Redroot pigweed plant response rating [9, 21]: 0 | Plant response rating, Redroot pigweed [9, 23]: 7 | Plant response rating, Redroot pigweed [9, 24]: 0 | Redroot pigweed plant response rating [9, 25]: 0 | Redroot pigweed plant response rating [9, 27]: 0 | Redroot pigweed plant response rating [9, 28]: 0 | Rape plant response rating [10, 21]: 0 | Plant response rating, Rape [10, 23]: 0 | Plant response rating, Rape [10, 24]: 0 | Rape plant response rating [10, 25]: 0 | Rape plant response rating [10, 27]: 0 | Rape plant response rating [10, 28]: 0 | Soybean plant response rating [11, 21]: 0 | Plant response rating, Soybean [11, 23]: 0 | Plant response rating, Soybean [11, 24]: 0 | Soybean plant response rating [11, 25]: 0 | Soybean plant response rating [11, 27]: 0 | Soybean plant response rating [11, 28]: 0 | Sugarbeets plant response rating [12, 21]: 0 | Plant response rating, Sugarbeets [12, 23]: 0 | Plant response rating, Sugarbeets [12, 24]: 0 | Sugarbeets plant response rating [12, 25]: 0 | Sugarbeets plant response rating [12, 27]: 0 | Sugarbeets plant response rating [12, 28]: 0 | Velvetleaf plant response rating [13, 21]: 0 | Plant response rating, Velvetleaf [13, 23]: 0 | Plant response rating, Velvetleaf [13, 24]: 0 | Velvetleaf plant response rating [13, 25]: 0 | Velvetleaf plant response rating [13, 27]: 4 | Velvetleaf plant response rating [13, 28]: 0 | Wheat plant response rating [14, 21]: 0 | Plant response rating, Wheat [14, 23]: 0 | Plant response rating, Wheat [14, 24]: 0 | Wheat plant response rating [14, 25]: 0 | Wheat plant response rating [14, 27]: 0 | Wheat plant response rating [14, 28]: 0 | Wild oats plant response rating [15, 21]: 0 | Plant response rating, Wild oats [15, 23]: 0 | Plant response rating, Wild oats [15, 24]: 0 | Wild oats plant response rating [15, 25]: 0 | Wild oats plant response rating [15, 27]: 0 | Wild oats plant response rating [15, 28]: 0 | Nutsedge plant response rating [16, 21]: 0 | Plant response rating, Nutsedge [16, 23]: 0 | Plant response rating, Nutsedge [16, 24]: 0 | Nutsedge plant response rating [16, 25]: 0 | Nutsedge plant response rating [16, 27]: 0 | Nutsedge plant response rating [16, 28]: 0 | Plant response rating, Rice (0 to 10 scale, 0 is no effect, 10 is complete control) [17, 29]: 0 | Rice plant response rating (0 to 10 scale, 0 is no effect, 10 is complete control) [17, 30]: 0 | Rice plant response rating [17, 31]: 0 | Rice plant response rating [17, 32]: 0 | Plant response rating, S. Flatsedge (0 to 10 scale, 0 is no effect, 10 is complete control) [18, 29]: 0 | S. Flatsedge plant response rating (0 to 10 scale, 0 is no effect, 10 is complete control) [18, 30]: 0 | S. Flatsedge plant response rating [18, 31]: 0 | S. Flatsedge plant response rating [18, 32]: 0 | Plant response rating, Ducksalad (0 to 10 scale, 0 is no effect, 10 is complete control) [19, 29]: 0 | Ducksalad plant response rating (0 to 10 scale, 0 is no effect, 10 is complete control) [19, 30]: 0 | Ducksalad plant response rating [19, 31]: 0 | Ducksalad plant response rating [19, 32]: 0 | Plant response rating, Barnyardgrass (0 to 10 scale, 0 is no effect, 10 is complete control) [20, 29]: 0 | Barnyardgrass plant response rating (0 to 10 scale, 0 is no effect, 10 is complete control) [20, 30]: 0 | Barnyardgrass plant response rating [20, 31]: 0 | Barnyardgrass plant response rating [20, 32]: 0
